Test systems include SR leukemia; HCT-15 colon; LOX IMVI melanoma; U251 CNS; UACC-62 melanoma; HT29 colon; COLO 205 colon; SN12C renal; MCF7 breast; BT-549 breast.
Experiment in all cases: NCI-60 cell line screen, 48 h

SMILES strings stand for the structures.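 Test compounds were applied to cells in 96-well plates for 48 hours at 5 doses. Abbreviation: GI50, concentration required for 50% inhibition of growth. TGI marks complete inhibition of growth.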 Some results are limits rather than exact numbers.

Turning to `CCCCCCCCCCCCCCCCNc1ccn(C2CC(OP(=O)(O)OCC3OC(n4cc(CC)c(=O)[nH]c4=O)CC3O)C(CO)O2)c(=O)n1` (configuration not stated), the TGI is 47.2 µM in the assay on SR leukemia; 72.5 µM in the assay on HCT-15 colon; more than 100 µM with LOX IMVI melanoma; 89.3 µM in the assay with U251 CNS; 35.8 µM in the assay on UACC-62 melanoma; 46.1 µM in the assay on HT29 colon. Besides, the values for the TGI with COLO 205 colon, in the assay with SN12C renal and in the assay with MCF7 breast were 92.4 µM, more than 100 µM and more than 100 µM, respectively.

As to `CCCCCCc1cn([C@H]2C[C@H](O)[C@@H](CO)O2)c(=O)[nH]c1=O`, the TGI in the assay with HCT-15 colon is more than 100 µM; in the assay on LOX IMVI melanoma, more than 100 µM; in the assay on U251 CNS it was more than 100 µM; in the assay with UACC-62 melanoma it was more than 31.6 µM; in the assay with HT29 colon, more than 100 µM; with SN12C renal, more than 100 µM. The TGI in the assay with MCF7 breast was more than 100 µM.

For `COc1ccc(NS(=O)c2cccc(C)c2)cc1` (configuration not stated), the TGI in the assay with SR leukemia, in the assay on HCT-15 colon, in the assay with LOX IMVI melanoma, in the assay on U251 CNS, in the assay with HT29 colon and with COLO 205 colon was more than 100 µM each time. Also, the TGI in the assay with SN12C renal and with MCF7 breast was more than 100 µM in each case.

As for `c1ccc(CNc2ncnc3n[nH]nc23)cc1`, the TGI in the assay on HCT-15 colon, in the assay with LOX IMVI melanoma, in the assay on U251 CNS, in the assay with UACC-62 melanoma, in the assay on HT29 colon and with COLO 205 colon was more than 100 µM throughout. Besides, the TGI with SN12C renal and in the assay with MCF7 breast was more than 100 µM throughout.

As for `O=C(NC/C=C/Br)NC1CCNc2ccccc21` (configuration not stated), the TGI is 61.8 µM in the assay on SR leukemia; more than 100 µM with HCT-15 colon; 56.8 µM with LOX IMVI melanoma; more than 100 µM in the assay on U251 CNS; 58.7 µM in the assay with UACC-62 melanoma; 31.2 µM in the assay with HT29 colon. Besides, the TGI is 37.7 µM in the assay with COLO 205 colon, more than 100 µM with SN12C renal and 47.9 µM in the assay with MCF7 breast.

In the case of `C=C1C(=O)O[C@H]2[C@H]([C@H](C)CCCC(C)=O)O[C@H]([C@@]3(C)CCC(=O)O3)C[C@@H]12`, the TGI was more than 100 µM in the assay with SR leukemia; more than 100 µM with HCT-15 colon; 64.4 µM with LOX IMVI melanoma; more than 100 µM with U251 CNS; more than 100 µM in the assay on UACC-62 melanoma; more than 100 µM with HT29 colon. In addition, the TGI with COLO 205 colon, with BT-549 breast and with SN12C renal was more than 100 µM in each case.

With `COc1ccc(NC(=S)NNC(=O)c2cc(-c3ccccc3)nc3ccccc23)cc1`, the TGI is 9.79 µM in the assay on SR leukemia; 33.7 µM in the assay on HCT-15 colon; 38.5 µM in the assay with U251 CNS; 30.6 µM in the assay with UACC-62 melanoma; 39.3 µM in the assay on HT29 colon; 97.4 µM in the assay on COLO 205 colon. Further, the TGI in the assay with BT-549 breast was 39.8 µM; in the assay on SN12C renal, 48.6 µM; in the assay with MCF7 breast, 17 µM.

As for `O=S(=O)(/N=C1/SC(=Nc2ccccc2)N(c2ccccc2)/C1=N/S(=O)(=O)c1ccccc1)c1ccccc1`, the TGI with SR leukemia came to 50.6 µM; in the assay on HCT-15 colon, 34.5 µM; with U251 CNS, 70.7 µM; in the assay with UACC-62 melanoma, 31.9 µM; in the assay on HT29 colon it was 48.1 µM; in the assay with COLO 205 colon, 64.1 µM. The TGI turned out to be 79.2 µM with BT-549 breast, 31.5 µM with SN12C renal and 52.7 µM with MCF7 breast.

Regarding `COc1cccc(C2CC(=O)c3cccn32)c1` (configuration not stated), the TGI in the assay on SR leukemia, in the assay on HCT-15 colon, with LOX IMVI melanoma, in the assay with U251 CNS, with UACC-62 melanoma and in the assay with HT29 colon was more than 100 µM each time. For the same molecule, the TGI in the assay on COLO 205 colon, with SN12C renal and with MCF7 breast was more than 100 µM in each case.

In the case of `C=C1CC(OC)(C(O)C(=O)N[C@H]2OCO[C@H]3C2O[C@H](C[C@H](O)COC)C(C)(C)C3OC)O[C@H](C)[C@@H]1C` (some centres not stated), the TGI in the assay on HCT-15 colon, in the assay on U251 CNS, with UACC-62 melanoma, in the assay on HT29 colon, with COLO 205 colon and in the assay with SN12C renal was more than 0.00772 µM each time. The TGI in the assay on MCF7 breast is more than 0.00772 µM.

In the case of `CN(C)c1ccc(/C=C2\C[C@H]3[C@@H]4CCc5cc(O)ccc5[C@H]4CC[C@]3(C)C2=O)cc1`, the TGI is more than 100 µM in the assay with SR leukemia; more than 100 µM in the assay on HCT-15 colon; more than 100 µM in the assay with LOX IMVI melanoma; more than 100 µM in the assay on U251 CNS; 86.1 µM with UACC-62 melanoma; more than 100 µM in the assay with HT29 colon. The TGI in the assay with COLO 205 colon and with MCF7 breast was more than 100 µM in each case.

As to `c1cc2ccc1CNCCN1CCNCc3ccc(cc3)Oc3ccc(cc3)CNCCN(CCNCc3ccc(cc3)O2)CCNCc2ccc(cc2)Oc2ccc(cc2)CNCC1`, the GI50 was 4.62 µM with HCT-15 colon; 0.682 µM in the assay with U251 CNS; 1.66 µM in the assay on UACC-62 melanoma; 0.446 µM in the assay on SN12C renal; 0.581 µM with MCF7 breast. In addition, the TGI in the assay on HCT-15 colon worked out at 20.1 µM; with U251 CNS, 1.99 µM; in the assay with UACC-62 melanoma, 3.1 µM; with SN12C renal it was 1.57 µM; in the assay on MCF7 breast it was 2.1 µM.

For `COC(=O)[C@@H]1O[C@]12[C@@H](CO[Si](C)(C)C(C)(C)C)O[C@@H](n1cc(C)c(=O)[nH]c1=O)[C@@H]2O[Si](C)(C)C(C)(C)C`, the TGI was 17.3 µM in the assay with HCT-15 colon; 10.2 µM in the assay with LOX IMVI melanoma; 24.7 µM in the assay with U251 CNS; 34.8 µM in the assay on UACC-62 melanoma; 18.1 µM in the assay with HT29 colon; more than 100 µM in the assay with COLO 205 colon. Also, the TGI in the assay with BT-549 breast was 32.6 µM; in the assay with SN12C renal, 27.9 µM.

In the case of `C=CCn1c(=O)c2ccccc2[n+]2c(-c3cccc([N+](=O)[O-])c3)csc12`, the TGI was 98.3 µM in the assay with SR leukemia; more than 100 µM in the assay with LOX IMVI melanoma; more than 100 µM in the assay with U251 CNS; more than 100 µM in the assay on UACC-62 melanoma; more than 100 µM in the assay with HT29 colon; 98.6 µM in the assay with COLO 205 colon. Also, the TGI with SN12C renal and in the assay on MCF7 breast was more than 100 µM each time.

On to `C[C@@H]1OCC(O)C([C@H]2OC(c3ccccc3)=N[C@H]2CO)O1` (some centres not stated), for which the TGI in the assay on SR leukemia, in the assay with HCT-15 colon, in the assay with LOX IMVI melanoma, in the assay with U251 CNS, in the assay on UACC-62 melanoma and in the assay on HT29 colon was more than 100 µM throughout. In addition, the TGI in the assay on COLO 205 colon, in the assay with SN12C renal and with MCF7 breast was more than 100 µM in each case.

For the origin of these results see PubChem BioAssay (NCI).
